The supplement of paper PMC8253809

Tests used:
[1] = system: SUDIPGXIX (diffuse intrinsic pontine glioma line); experiment: EC50 (inflection of fitted growth-inhibition curve) (log10 M)
Procedure, shortened: (§1)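 EC50 and maximal response (yFin) were derived from the lowest-AICc fit, either three- or four-parameter log-logistic. The data were pooled CellTiter-Glo luminescence values, log2-transformed and normalised per plate to % activity between negative (solvent) and positive controls. Patient-derived pHGG/DIPG cell lines and astrocyte controls on 1% Geltrex-coated 384-well plates received a 10-point threefold dilution series (mean top concentration 35 μM) by pin tool, in triplicate, for 7 days (iAstro 3 days) at 37 °C, 5% CO2.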

[2] = system: SUDIPGXXI (diffuse intrinsic pontine glioma line); experiment: as above
Procedure, shortened: as §1

[3] = system: iAstro (astrocyte control); experiment: as above
Procedure, shortened: as §1

[4] = system: SUDIPGXIX; experiment: maximal growth inhibition (yFin) relative to DMSO / staurosporine; higher = more efficacious
Procedure, shortened: as §1

[5] = system: SUDIPGXXI; experiment: as above
Procedure, shortened: as §1

[6] = system: iAstro; experiment: as above
Procedure, shortened: as §1

[7] = system: DIPGX29 (H3.3 K27M diffuse intrinsic pontine glioma line); experiment: area under dose-response curve of % growth inhibition (log2 RLU vs DMSO / staurosporine), 1e-11 to 1e-4 M (% x log10 M); higher = more growth inhibition
Procedure, shortened: (§2)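 Cells were exposed in triplicate for 7 days (iAstro: 3 days) at 37 °C, 5% CO2 to a 10-point series of threefold dilutions with a mean top concentration of 35 μM. These were patient-derived pHGG/DIPG lines plus astrocytes, grown on 384-well plates coated with 1% Geltrex. Readout was CellTiter-Glo luminescence, log2-transformed and set per plate to % activity between solvent and positive controls, from which area under the curve was derived by trapezoid rule on a log-logistic fit or, failing that, a smoothing spline.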

[8] = system: DIPGX37 (H3.3 K27M diffuse intrinsic pontine glioma line); experiment: as above
Procedure, shortened: as §2

[9] = system: DIPGX7 (H3.3 K27M diffuse intrinsic pontine glioma line); experiment: as above
Procedure, shortened: as §2

[10] = system: DIPGX9 (diffuse intrinsic pontine glioma line); experiment: as above
Procedure, shortened: as §2

[11] = system: HABS (astrocyte control); experiment: as above
Procedure, shortened: as §2

[12] = system: HGGX2 (paediatric high-grade glioma line); experiment: as above
Procedure, shortened: as §2

[13] = system: HGGX39 (paediatric high-grade glioma line); experiment: as above
Procedure, shortened: as §2

[14] = system: HGGX42 (H3.3 G34R paediatric high-grade glioma line); experiment: as above
Procedure, shortened: as §2

[15] = system: HGGX6 (H3.3 G34R paediatric high-grade glioma line); experiment: as above
Procedure, shortened: as §2

[16] = system: SUDIPGIV (diffuse intrinsic pontine glioma line); experiment: as above
Procedure, shortened: as §2

[17] = system: SUDIPGVI (diffuse intrinsic pontine glioma line); experiment: as above
Procedure, shortened: as §2

[18] = system: SUDIPGXIII (diffuse intrinsic pontine glioma line); experiment: as above
Procedure, shortened: as §2

[19] = system: SUDIPGXIX; experiment: as above
Procedure, shortened: as §2

[20] = system: SUDIPGXVII (diffuse intrinsic pontine glioma line); experiment: as above
Procedure, shortened: as §2

[21] = system: SUDIPGXXI; experiment: as above
Procedure, shortened: as §2

[22] = system: iAstro; experiment: as above
Procedure, shortened: as §2

[23] = system: DIPGX29; experiment: EC50 (inflection of fitted growth-inhibition curve) (log10 M)
Procedure, shortened: as §1

[24] = system: DIPGX37; experiment: as above
Procedure, shortened: as §1

[25] = system: DIPGX7; experiment: as above
Procedure, shortened: as §1

[26] = system: HGGX42; experiment: as above
Procedure, shortened: as §1

[27] = system: DIPGX29; experiment: maximal growth inhibition (yFin) relative to DMSO / staurosporine; higher = more efficacious
Procedure, shortened: as §1

[28] = system: DIPGX37; experiment: as above
Procedure, shortened: as §1

[29] = system: DIPGX7; experiment: as above
Procedure, shortened: as §1

[30] = system: HGGX42; experiment: as above
Procedure, shortened: as §1

Row | Compound | EC50 (log10 M) [1] | EC50 (log10 M) [2] | EC50 (log10 M) [3] | maximal growth inhibition [4] | maximal growth inhibition [5] | maximal growth inhibition [6] | area under dose-response curve [7] | area under dose-response curve [8] | area under dose-response curve [9] | area under dose-response curve [10] | area under dose-response curve [11] | area under dose-response curve [12] | area under dose-response curve [13] | area under dose-response curve [14] | area under dose-response curve [15] | area under dose-response curve [16] | area under dose-response curve [17] | area under dose-response curve [18] | area under dose-response curve [19] | area under dose-response curve [20] | area under dose-response curve [21] | area under dose-response curve [22] | EC50 (log10 M) [23] | EC50 (log10 M) [24] | EC50 (log10 M) [25] | EC50 (log10 M) [26] | maximal growth inhibition [27] | maximal growth inhibition [28] | maximal growth inhibition [29] | maximal growth inhibition [30]
1 | COc1ccc(Cn2ccc3ccc(C(=O)NO)cc32)cc1 | -4.78 | -4.78 | -4.67 | 31.4% | 117% | 47.6% | 24.9 | 30.6 | 20.3 | 19.1 | 11.9 | 14.8 | 10.3 | 25.8 | 5.76 | 6.64 | 2.84 | 30.1 | 24.5 | 7.72 | 91.2 | 47 |  |  |  |  |  |  |  | 
2 | Fc1ccc(N2CCN(CCC3OCCc4ccccc43)CC2)cc1 (stereo not given) |  | -5.02 | -5.03 |  | 57.5% | 23.3% | 27.2 | 33.4 | 37.3 | 13.4 | 1.16 | 15.4 | 18.1 | 37.8 | 14.9 | 15.7 | 12.8 | 13.4 | 0 | 8.36 | 87.1 | 24 | -5.02 | -4.97 | -4.91 | -4.98 | 26.6% | 34.9% | 40.7% | 38.6%
